# From patent US20150344466A1 (SUMITOMO CHEMICAL COMPANY, LIMITED, priority 2013, published 2015)
# How the values were obtained:
# Format in all cases: in vivo
# [1] = tested on: Blattella germanica; assay: Knockdown spray test on Blattella germanica, 0.1% w/v oil formulation (Test Example 2); details: topical, 0.25 h, active ingredient 0.1% w/v, 1.5 ml sprayed, within 15 minutes, read-out: knockdown rate of the test insects within 15 minutes
# Procedure: Ten Blattella germanica (5 males and 5 females) were released in a test container (8.75 cm in diameter, 7.5 cm in height, and the bottom made of 16 mesh metallic wire) with the inner wall on which butter was applied, and the container was placed on the bottom of a test chamber (bottom: 46 cm×46 cm, height: 70 cm). From a height of 60 cm above the upper surface of the container, 1.5 ml of the test drug solution was sprayed using a spray gun (a spraying pressure of 0.42 kg/cm^2). Thirty seconds after spraying, the container was taken out from the test chamber, and after 2 minutes, 5 minutes and 15 minutes, the number of knocked-down insects was counted to obtain a knockdown rate. The knockdown rate was calculated by the following equation.
# Knockdown Rate (%)=(Number of Knocked-down Insects/Number of Tested Insects)×100
# [2] = tested on: Culex pipiens pallens; assay: Knockdown spray test on adult Culex pipiens pallens (Test Example 4); details: topical, 0.25 h, active ingredient 0.1% w/v, 0.5 ml sprayed, within 15 minutes, read-out: knockdown rate of the test insects within 15 minutes
# Method in brief: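 Ten adult mosquitoes in a gauze-covered cup inside a 46×46×70 cm chamber were sprayed with 0.5 ml of test solution from 30 cm at 0.4 kg/cm^2. The cup was removed at once, and knocked-down insects were counted at 2, 5 and 15 min; knockdown rate (%) = knocked-down/tested ×100.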
# [3] = tested on: Musca domestica; assay: Filter paper/sucrose bait death rate test on Musca domestica (Test Example 5); details: female imagoes of Musca domestica, 0.7 ml on filter paper, after 24 hours
# Procedure: A filter paper having a diameter of 5.5 cm was spread on the bottom of a polyethylene cup having the same diameter and 0.7 ml of the test drug solution was added dropwise onto the filter paper, and 30 mg of sucrose was uniformly placed as bait.
# Into the polyethylene cup, 10 female imagoes of Musca domestica were released, and the cup was sealed with a lid. After 24 hours, the life and death of Musca domestica was examined, and the death rate was calculated. The death rate was calculated by the following equation.
# Death rate (%)=(Number of dead insects/Number of tested insects)×100
smiles,measurement,setting,value
"O=C(NCC1CCOCC1)c1cc(COCc2ccccc2Cl)on1 [(67), N-(tetrahydropyran-4-ylmethyl)-5-(2-chlorobenzyloxymethyl)isoxazole-3-carboxamide]",pest or weed control at 0.1 % strength,[1],≥ 80%
same,pest or weed control at 0.1 % strength,[2],≥ 80%
same,pest or weed control at 500 ppm,[3],≥ 90%
"O=C(NCC1CCOC1)c1cc(Cc2ccsc2)on1 (stereo not drawn) [(309), N-(tetrahydrofuran-3-ylmethyl)-5-(3-thienylmethyl)isoxazole-3-carboxamide]",pest or weed control at 0.1 % strength,[1],≥ 80%
same,pest or weed control at 0.1 % strength,[2],≥ 80%
same,pest or weed control at 500 ppm,[3],≥ 90%
"Cc1cc(C)cc(COCc2cc(C(=O)NCC3CCOC3)no2)c1 (stereo not drawn) [(271), N-(tetrahydrofuran-3-ylmethyl)-5-(3,5-dimethylbenzyloxymethyl)isoxazole-3-carboxamide]",pest or weed control at 0.1 % strength,[2],≥ 80%
same,pest or weed control at 500 ppm,[3],≥ 90%
"O=C(NCC1CCOC1)c1cc(COCc2c(F)cccc2F)on1 (stereo not drawn) [(275), N-(tetrahydrofuran-3-ylmethyl)-5-(2,6-difluorobenzyloxymethyl)isoxazole-3-carboxamide]",pest or weed control at 0.1 % strength,[2],≥ 80%
same,pest or weed control at 500 ppm,[3],≥ 90%
"O=C(NCC1CCOC1)c1cc(Cc2cc(F)cc(F)c2)on1 (stereo not drawn) [(305), N-(tetrahydrofuran-3-ylmethyl)-5-(3,5-difluorobenzyl)isoxazole-3-carboxamide]",pest or weed control at 0.1 % strength,[1],≥ 80%
same,pest or weed control at 0.1 % strength,[2],≥ 80%
same,pest or weed control at 500 ppm,[3],≥ 90%
"O=C(NCC1CCOCC1)c1cc(COc2cccc(F)c2)on1 [(195), N-(tetrahydropyran-4-ylmethyl)-5-(3-fluorophenoxymethyl)isoxazole-3-carboxamide]",pest or weed control at 0.1 % strength,[1],≥ 80%
same,pest or weed control at 0.1 % strength,[2],≥ 80%
same,pest or weed control at 500 ppm,[3],≥ 90%
"O=C(NCC1CCOC1)c1cc(COCc2cc(F)cc(F)c2)on1 (stereo not drawn) [(266), 14-(tetrahydrofuran-3-ylmethyl)-5-(3,5-difluorobenzyloxymethyl)isoxazole-3-carboxamide]",pest or weed control at 0.1 % strength,[1],≥ 80%
same,pest or weed control at 0.1 % strength,[2],≥ 80%
same,pest or weed control at 500 ppm,[3],≥ 90%
"COc1ccc(Cc2cc(C(=O)NCC3CCOC3)no2)cc1 (stereo not drawn) [(314), N-(tetrahydrofuran-3-ylmethyl)-5-(4-methoxybenzyl)isoxazole-3-carboxamide]",pest or weed control at 0.1 % strength,[1],≥ 80%
same,pest or weed control at 0.1 % strength,[2],≥ 80%
same,pest or weed control at 500 ppm,[3],≥ 90%
"COc1cccc(COCc2cc(C(=O)NCC3CCOC3)no2)c1 (stereo not drawn) [(84), N-(tetrahydrofuran-3-ylmethyl)-5-(3-methoxybenzyloxymethyl) isoxazole-3-carboxamide]",pest or weed control at 0.1 % strength,[1],≥ 80%
same,pest or weed control at 0.1 % strength,[2],≥ 80%
same,pest or weed control at 500 ppm,[3],≥ 90%
"O=C(NCC1CCOC1)c1cc(Cc2ccc(Cl)cc2)on1 (stereo not drawn) [(322), N-(tetrahydrofuran-3-ylmethyl)-5-(4-chlorobenzyl)isoxazole-3-carboxamide]",pest or weed control at 0.1 % strength,[1],≥ 80%
same,pest or weed control at 0.1 % strength,[2],≥ 80%
same,pest or weed control at 500 ppm,[3],≥ 90%
"O=C(NCC1CCOC1)c1cc(COCc2ccccc2Cl)on1 (stereo not drawn) [(66), N-(tetrahydrofuran-3-ylmethyl)-5-(2-chlorobenzyloxymethyl)isoxazole-3-carboxamide]",pest or weed control at 0.1 % strength,[1],≥ 80%
same,pest or weed control at 0.1 % strength,[2],≥ 80%
same,pest or weed control at 500 ppm,[3],≥ 90%
"Cc1c(C(=O)NCC2CCOC2)noc1COCc1ccccc1F (stereo not drawn) [(286), N-(tetrahydrofuran-3-ylmethyl)-5-(2-fluorobenzyloxymethyl)-4-methylisoxazole-3-carboxamide]",pest or weed control at 0.1 % strength,[1],≥ 80%
same,pest or weed control at 0.1 % strength,[2],≥ 80%
same,pest or weed control at 500 ppm,[3],≥ 90%
"O=C(NCC1CCOC1)c1cc(Cc2ccc(F)cc2)on1 (stereo not drawn) [(319), N-(tetrahydrofuran-3-ylmethyl)-5-(4-fluorobenzyl)isoxazole-3-carboxamide]",pest or weed control at 0.1 % strength,[1],≥ 80%
same,pest or weed control at 0.1 % strength,[2],≥ 80%
same,pest or weed control at 500 ppm,[3],≥ 90%
"O=C(NCC1CCOC1)c1cc(Cc2ccc(F)c(F)c2F)on1 (stereo not drawn) [(324), N-(tetrahydrofuran-3-ylmethyl)-5-(2,3,4-trifluorobenzyl)isoxazole-3-carboxamide]",pest or weed control at 0.1 % strength,[1],≥ 80%
same,pest or weed control at 0.1 % strength,[2],≥ 80%
same,pest or weed control at 500 ppm,[3],≥ 90%
O=C(NCC1CCOC1)c1cc(COCc2cccc(Cl)c2)on1 (stereo not drawn) [(68)],pest or weed control at 0.1 % strength,[1],≥ 80%
same,pest or weed control at 0.1 % strength,[2],≥ 80%
same,pest or weed control at 500 ppm,[3],≥ 90%
"O=C(NCC1CCOC1)c1cc(COCc2cc(F)cc(Cl)c2)on1 (stereo not drawn) [(268), N-(tetrahydrofuran-3-ylmethyl)-5-(3-chloro-5-fluorobenzyloxymethyl)isoxazole-3-carboxamide]",pest or weed control at 0.1 % strength,[1],≥ 80%
same,pest or weed control at 0.1 % strength,[2],≥ 80%
same,pest or weed control at 500 ppm,[3],≥ 90%
"CC1(C)CC(NC(=O)c2cc(COCc3ccccc3)on2)CCO1 (stereo not drawn) [(335), N-(2,2-dimethyltetrahydropyran-4-yl)-5-benzyloxymethylisoxazole-3-carboxamide]",pest or weed control at 0.1 % strength,[2],≥ 80%
same,pest or weed control at 500 ppm,[3],≥ 90%
"O=C(NCC1CCOC1)c1cc(Cc2cccs2)on1 (stereo not drawn) [(308), N-(tetrahydrofuran-3-ylmethyl)-5-(2-thienylmethyl)isoxazole-3-carboxamide]",pest or weed control at 0.1 % strength,[2],≥ 80%
same,pest or weed control at 500 ppm,[3],≥ 90%
"O=C(NCC1CCOC1)c1cc(COCc2ccc(F)c(F)c2F)on1 (stereo not drawn) [(270), N-(tetrahydrofuran-3-ylmethyl)-5-(2,3,4-trifluorobenzyloxymethyl)isoxazole-3-carboxamide]",pest or weed control at 0.1 % strength,[1],≥ 80%
same,pest or weed control at 0.1 % strength,[2],≥ 80%
same,pest or weed control at 500 ppm,[3],≥ 90%
"COc1ccc(COCc2cc(C(=O)NCC3CCOC3)no2)cc1 (stereo not drawn) [(99), N-(tetrahydrofuran-3-ylmethyl)-5-(4-methoxybenzyloxymethyl) isoxazole-3-carboxamide]",pest or weed control at 0.1 % strength,[1],≥ 80%
same,pest or weed control at 0.1 % strength,[2],≥ 80%
"O=C(NCC1COCCO1)c1cc(CCCc2ccc3ccccc3c2)on1 (stereo not drawn) [(230), N-(1,4-dioxan-2-ylmethyl)-5-[3-(2-naphthyl)propyl]isoxazole-3-carboxamide]",pest or weed control at 0.1 % strength,[1],≥ 80%
same,pest or weed control at 0.1 % strength,[2],≥ 80%
"CCc1c(C(=O)NCC2CCOC2)noc1COCc1ccc2ccccc2c1 (stereo not drawn) [(338), N-(tetrahydrofuran-3-ylmethyl)-5-(2-naphthylmethoxymethyl)-4-ethylisoxazole-3-carboxamide]",pest or weed control at 0.1 % strength,[1],≥ 80%
same,pest or weed control at 0.1 % strength,[2],≥ 80%
"O=C(NCC1CCOC1)c1cc(COCc2cc(F)c(F)c(F)c2)on1 (stereo not drawn) [(267), N-(tetrahydrofuran-3-ylmethyl)-5-(3,4,5-trifluorobenzyloxymethyl)isoxazole-3-carboxamide]",pest or weed control at 0.1 % strength,[1],≥ 80%
same,pest or weed control at 0.1 % strength,[2],≥ 80%
same,pest or weed control at 500 ppm,[3],≥ 90%
"Cc1cccc(COCc2cc(C(=O)NCC3CCOC3)no2)c1 (stereo not drawn) [(82), N-(tetrahydrofuran-3-ylmethyl)-5-(3-methylbenzyloxymethyl)isoxazole-3-carboxamide]",pest or weed control at 0.1 % strength,[1],≥ 80%
same,pest or weed control at 0.1 % strength,[2],≥ 80%
same,pest or weed control at 500 ppm,[3],≥ 90%
"O=C(NCC1CCOC1)c1cc(COCc2cccc(F)c2F)on1 (stereo not drawn) [(274), N-(tetrahydrofuran-3-ylmethyl)-5-(2,3-difluorobenzyloxymethyl)isoxazole-3-carboxamide]",pest or weed control at 0.1 % strength,[1],≥ 80%
same,pest or weed control at 0.1 % strength,[2],≥ 80%
same,pest or weed control at 500 ppm,[3],≥ 90%
"CC1(CNC(=O)c2cc(COCc3ccc4ccccc4c3)on2)COC1 [(333), N-(3-methyloxetan-3-ylmethyl)-5-(2-naphthylmethoxymethyl)isoxazole-3-carboxamide]",pest or weed control at 0.1 % strength,[2],≥ 80%
same,pest or weed control at 500 ppm,[3],≥ 90%
"O=C(NCC1CCOC1)c1cc(COCc2cccc(SC(F)(F)F)c2)on1 (stereo not drawn) [(80), N-(tetrahydrofuran-3-ylmethyl)-5-(3-trifluoromethylthiobenzyloxymethyl)isoxazole-3-carboxamide]",pest or weed control at 0.1 % strength,[1],≥ 80%
same,pest or weed control at 0.1 % strength,[2],≥ 80%
"O=C(NCC1CCOC1)c1noc(COCc2ccc3ccccc3c2)c1CF (stereo not drawn) [(211), N-(tetrahydrofuran-3-ylmethyl)-4-fluoromethyl-5-(2-naphthylmethoxymethyl)isoxazole-3-carboxamide]",pest or weed control at 0.1 % strength,[1],≥ 80%
same,pest or weed control at 0.1 % strength,[2],≥ 80%
O=C(NCC1CCOC1)c1cc(COc2ccc(Cl)cc2)on1 (stereo not drawn) [(180)],pest or weed control at 0.1 % strength,[1],≥ 80%
same,pest or weed control at 0.1 % strength,[2],≥ 80%
"COc1ccc(COCc2cc(C(=O)NCC3CCOC3)no2)cc1F (stereo not drawn) [(277), N-(tetrahydrofuran-3-ylmethyl)-5-(3-fluoro-4-methoxybenzyloxymethyl)isoxazole-3-carboxamide]",pest or weed control at 0.1 % strength,[1],≥ 80%
same,pest or weed control at 0.1 % strength,[2],≥ 80%
